The source of these data is patent US20260166039A1 (SCHRÖDINGER, INC., priority 2022, published 2026).

As usually defined, the IC50 is the concentration that gives 50% inhibition. Read a high IC50 as weaker potency.

This test deals with T1, Wee1 kinase domain (Homo sapiens, UniProt P30291).
T1 construct: Wee1 kinase domain was purchased from Carna (catalog #05-177); purchased Carna 05-177
T1 sequence (P30291 299-569 limits assumed): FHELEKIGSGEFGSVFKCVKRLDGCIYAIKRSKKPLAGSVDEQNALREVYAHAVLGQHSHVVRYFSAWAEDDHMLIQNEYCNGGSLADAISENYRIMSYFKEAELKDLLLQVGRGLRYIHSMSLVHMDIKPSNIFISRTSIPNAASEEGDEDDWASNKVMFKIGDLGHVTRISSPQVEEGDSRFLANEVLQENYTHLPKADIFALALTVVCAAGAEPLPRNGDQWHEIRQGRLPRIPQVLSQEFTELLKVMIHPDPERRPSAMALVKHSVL
Kind of test: Wee1 Kinase Biochemical Assay (ADP-Glo). Conditions: class symbols; 1 nM Wee1 enzyme, 15 uM ATP, 4 hours at 25° C. The gist of the method: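 ADP-Glo detection of ADP produced after 4 h at 25° C by 1 nM Wee1 kinase domain on 2 ng/mL poly(Lys,Tyr 4:1) with 15 uM ATP. Buffer: 40 mM Tris-HCl, 20 mM MgCl2, 0.1 mg/mL BSA, 2 mM DTT. Inhibition is relative to DMSO (high) and saturating Wee1 inhibitor (low) controls.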
In general terms: ADP-Glo first removes unused ATP, then detects ADP through luciferase.
Compound `CC1(C)C[C@@H]2N(c3cccc(N4CCOC4=O)n3)c3nc(Nc4ccc(C5CNC5)cc4)ncc3[C@]2(C)CO1` [Example 667, 3-(6-((4bS,8aS)-2-((4-(azetidin-3-yl)phenyl)amino)-4b,7,7-trimethyl-4b,7,8,8a-tetrahydropyrano[3′,4′:4,5]pyrrolo[2,3-d]pyrimidin-9(5H)-yl)pyridin-2-yl)oxazolidin-2-one] gave an IC50 of 10 to 100 nM. As for `CN1C[C@H]2C[C@@H]1CN2c1ccc(Nc2ncc3c(n2)N(c2cccc(N4CCOC4=O)n2)[C@H]2CC(C)(C)OC[C@@]32C)cc1F` [Example 669, 3-(6-((4bS,8aS)-2-((3-fluoro-4-((1R,4R)-5-methyl-2,5-diazabicyclo[2.2.1]heptan-2-yl)phenyl)amino)-4b,7,7-trimethyl-4b,7,8,8a-tetrahydropyrano[3′,4′:4,5]pyrrolo[2,3-d]pyrimidin-9(5H)-yl)pyridin-2-yl)oxazolidin-2-one], the figure is 10 to 100 nM; as for `CN1CC[C@@](C)(c2ccc(Nc3ncc4c(n3)N(c3cccc(N5CCOC5=O)n3)[C@H]3CC(C)(C)OC[C@@]43C)cc2)C1` [Example 671, 3-(6-((4bS,8aS)-2-((4-((S)-1,3-dimethylpyrrolidin-3-yl)phenyl)amino)-4b,7,7-trimethyl-4b,7,8,8a-tetrahydropyrano[3′,4′:4,5]pyrrolo[2,3-d]pyrimidin-9(5H)-yl)pyridin-2-yl)oxazolidin-2-one], 10 to 100 nM.

As to `CC1(C)C[C@@H]2N(c3cccc(N4CCOC4=O)n3)c3nc(Nc4ccc([C@H]5CNC[C@H]5F)cc4)ncc3[C@]2(C)CO1` [Example 673, 3-(6-((4bS,8aS)-2-((4-((3S,4S)-4-fluoropyrrolidin-3-yl)phenyl)amino)-4b,7,7-trimethyl-4b,7,8,8a-tetrahydropyrano[3′,4′:4,5]pyrrolo[2,3-d]pyrimidin-9(5H)-yl)pyridin-2-yl)oxazolidin-2-one], the IC50 lay in the range of 10 to 100 nM. As for `CC1(C)C[C@@H]2N(c3cccc(N4CCOC4=O)n3)c3nc(Nc4ccc([C@@H]5CNC[C@@H]5F)cc4)ncc3[C@]2(C)CO1` [Example 674, 3-(6-((4bS,8aS)-2-((4-((3R,4R)-4-fluoropyrrolidin-3-yl)phenyl)amino)-4b,7,7-trimethyl-4b,7,8,8a-tetrahydropyrano[3′,4′:4,5]pyrrolo[2,3-d]pyrimidin-9(5H)-yl)pyridin-2-yl)oxazolidin-2-one], the IC50 lay in the range of 10 to 100 nM. As for `CN1C[C@@H]2C[C@H]1CN2c1ccc(Nc2ncc3c(n2)N(c2cccc(N4CCOC4=O)n2)[C@H]2CC(C)(C)OC[C@@]32C)cc1F` [Example 677, 3-(6-((4bS,8aS)-2-((3-fluoro-4-((1S,4S)-5-methyl-2,5-diazabicyclo[2.2.1]heptan-2-yl)phenyl)amino)-4b,7,7-trimethyl-4b,7,8,8a-tetrahydropyrano[3′,4′:4,5]pyrrolo[2,3-d]pyrimidin-9(5H)-yl)pyridin-2-yl)oxazolidin-2-one], the figure is 10 to 100 nM. Compound `CC1(C)C[C@@H]2N(c3cccc(N4CCOC4=O)n3)c3nc(Nc4ccc([C@@H]5CNCC5(F)F)cc4)ncc3[C@]2(C)CO1` [Example 681, 3-(6-((4bS,8aS)-2-((4-((R)-4,4-difluoropyrrolidin-3-yl)phenyl)amino)-4b,7,7-trimethyl-4b,7,8,8a-tetrahydropyrano[3′,4′:4,5]pyrrolo[2,3-d]pyrimidin-9(5H)-yl)pyridin-2-yl)oxazolidin-2-one] came in with an IC50 of 10 to 100 nM. Turning to `CC1(C)C[C@@H]2N(c3cccc(N4CCOC4=O)n3)c3nc(Nc4ccc([C@H]5CNCC5(F)F)cc4)ncc3[C@]2(C)CO1` [Example 683, 3-(6-((4bS,8aS)-2-((4-((S)-4,4-difluoropyrrolidin-3-yl)phenyl)amino)-4b,7,7-trimethyl-4b,7,8,8a-tetrahydropyrano[3′,4′:4,5]pyrrolo[2,3-d]pyrimidin-9(5H)-yl)pyridin-2-yl)oxazolidin-2-one], the IC50 fell in the range of 100 to 1000 nM. As for `CN1CC[C@H]2CN(c3ccc(Nc4ncc5c(n4)N(c4cccc(N6CCOC6=O)n4)[C@H]4CC(C)(C)OC[C@@]54C)cc3)C[C@H]21` [Example 685, 3-(6-((4bS,8aS)-4b,7,7-trimethyl-2-((4-((3aS,6aS)-1-methylhexahydropyrrolo[3,4-b]pyrrol-5(1H)-yl)phenyl)amino)-4b,7,8,8a-tetrahydropyrano[3′,4′:4,5]pyrrolo[2,3-d]pyrimidin-9(5H)-yl)pyridin-2-yl)oxazolidin-2-one], the IC50 was 10 to 100 nM. For `CN1CC[C@@H]2CN(c3ccc(Nc4ncc5c(n4)N(c4cccc(N6CCCC6=O)n4)[C@H]4CC(C)(C)OC[C@@]54C)cc3)C[C@@H]21` [Example 687, 1-(6-((4bS,8aS)-4b,7,7-trimethyl-2-((4-((3aR,6aR)-1-methylhexahydropyrrolo[3,4-b]pyrrol-5(1H)-yl)phenyl)amino)-4b,7,8,8a-tetrahydropyrano[3′,4′:4,5]pyrrolo[2,3-d]pyrimidin-9(5H)-yl)pyridin-2-yl)pyrrolidin-2-one] the value was 100 to 1000 nM; for `CN1CC[C@H]2CN(c3ccc(Nc4ncc5c(n4)N(c4cccc(N6CCCC6=O)n4)[C@H]4CC(C)(C)OC[C@@]54C)cc3)C[C@H]21` [Example 689, 1-(6-((4bS,8aS)-4b,7,7-trimethyl-2-((4-((3aS,6aS)-1-methylhexahydropyrrolo[3,4-b]pyrrol-5(1H)-yl)phenyl)amino)-4b,7,8,8a-tetrahydropyrano[3′,4′:4,5]pyrrolo[2,3-d]pyrimidin-9(5H)-yl)pyridin-2-yl)pyrrolidin-2-one], 100 to 1000 nM; for `CN1CC2(C1)CN(c1ccc(Nc3ncc4c(n3)N(c3cccc(N5CCCC5=O)n3)[C@H]3CC(C)(C)OC[C@@]43C)cc1)C2` [Example 691, 1-(6-((4bS,8aS)-4b,7,7-trimethyl-2-((4-(6-methyl-2,6-diazaspiro[3.3]heptan-2-yl)phenyl)amino)-4b,7,8,8a-tetrahydropyrano[3′,4′:4,5]pyrrolo[2,3-d]pyrimidin-9(5H)-yl)pyridin-2-yl)pyrrolidin-2-one], 100 to 1000 nM. In turn, `CN1C[C@@H]2CN(c3ccc(Nc4ncc5c(n4)N(c4cccc(N6CCOC6=O)n4)[C@H]4CC(C)(C)OC[C@@]54C)cc3)C[C@@H]2C1` [Example 693, 3-(6-((4bS,8aS)-46,7,7-trimethyl-2-((4-((3aR,6aS)-5-methylhexahydropyrrolo[3,4-c]pyrrol-2(1H)-yl)phenyl)amino)-4b,7,8,8a-tetrahydropyrano[3′,4′:4,5]pyrrolo[2,3-d]pyrimidin-9(5H)-yl)pyridin-2-yl)oxazolidin-2-one] showed an IC50 of 100 to 1000 nM.

For `CN1C[C@@H]2CN(c3ccc(Nc4ncc5c(n4)N(c4cccc(N6CCCC6=O)n4)[C@H]4CC(C)(C)OC[C@@]54C)cc3)C[C@@H]2C1` [Example 695, 1-(6-((4bS,8aS)-4b,7,7-trimethyl-2-((4-((3aR,6aS)-5-methylhexahydropyrrolo[3,4-c]pyrrol-2(1H)-yl)phenyl)amino)-4b,7,8,8a-tetrahydropyrano[3′,4′:4,5]pyrrolo[2,3-d]pyrimidin-9(5H)-yl)pyridin-2-yl)pyrrolidin-2-one], the IC50 is 10 to 100 nM. `CN1CC(c2ccc(Nc3ncc4c(n3)N(c3cccc(N5CCCC5=O)n3)[C@H]3CC(C)(C)OC[C@@]43C)cc2)C1` [Example 697, 1-(6-((4bS,8aS)-4b,7,7-trimethyl-2-((4-(1-methylazetidin-3-yl)phenyl)amino)-4b,7,8,8a-tetrahydropyrano[3′,4′:4,5]pyrrolo[2,3-d]pyrimidin-9(5H)-yl)pyridin-2-yl)pyrrolidin-2-one] yielded an IC50 of 10 to 100 nM. For `CN1CC(c2ccc(Nc3ncc4c(n3)N(c3cccc(N5CCOC5=O)n3)[C@H]3CC(C)(C)OC[C@@]43C)cc2)C1` [Example 699, 3-(6-((4bS,8aS)-4b,7,7-trimethyl-2-((4-(1-methylazetidin-3-yl)phenyl)amino)-4b,7,8,8a-tetrahydropyrano[3′,4′:4,5]pyrrolo[2,3-d]pyrimidin-9(5H)-yl)pyridin-2-yl)oxazolidin-2-one] the value was 100 to 1000 nM.

The compound `CN1[C@@H]2C[C@H]1CN(c1ccc(Nc3ncc4c(n3)N(c3cccc(N5CCOC5=O)n3)[C@H]3CC(C)(C)OC[C@@]43C)cc1)C2` [Example 701, 3-(6-((4bS,8aS)-4b,7,7-trimethyl-2-((4-((1R,5S)-6-methyl-3,6-diazabicyclo[3.1.1]heptan-3-yl)phenyl)amino)-4b,7,8,8a-tetrahydropyrano[3′,4′:4,5]pyrrolo[2,3-d]pyrimidin-9(5H)-yl)pyridin-2-yl)oxazolidin-2-one] registered an IC50 of 10 to 100 nM. For `CN1[C@@H]2C[C@H]1CN(c1ccc(Nc3ncc4c(n3)N(c3cccc(N5CCCC5=O)n3)[C@H]3CC(C)(C)OC[C@@]43C)cc1)C2` [Example 704, 1-(6-((4bS,8aS)-4b,7,7-trimethyl-2-((4-((1R,5S)-6-methyl-3,6-diazabicyclo[3.1.1]heptan-3-yl)phenyl)amino)-4b,7,8,8a-tetrahydropyrano[3′,4′:4,5]pyrrolo[2,3-d]pyrimidin-9(5H)-yl)pyridin-2-yl)pyrrolidin-2-one] the value was 100 to 1000 nM. As for `CN1CC[C@@H]2CN(c3ccc(Nc4ncc5c(n4)N(c4cccc(N6CCOC6=O)n4)[C@H]4CC(C)(C)OC[C@@]54C)cc3)C[C@@H]21` [Example 706, 3-(6-((4bS,8aS)-4b,7,7-trimethyl-2-((4-((3aR,6aR)-1-methylhexahydropyrrolo[3,4-b]pyrrol-5(1H)-yl)phenyl)amino)-4b,7,8,8a-tetrahydropyrano[3′,4′:4,5]pyrrolo[2,3-d]pyrimidin-9(5H)-yl)pyridin-2-yl)oxazolidin-2-one], the figure is 10 to 100 nM; as for `CN1CC2(C1)CN(c1ccc(Nc3ncc4c(n3)N(c3cccc(N5CCOC5=O)n3)[C@H]3CC(C)(C)OC[C@@]43C)cc1)C2` [Example 708, 3-(6-((4bS,8aS)-4b,7,7-trimethyl-2-((4-(6-methyl-2,6-diazaspiro[3.3]heptan-2-yl)phenyl)amino)-4b,7,8,8a-tetrahydropyrano[3′,4′:4,5]pyrrolo[2,3-d]pyrimidin-9(5H)-yl)pyridin-2-yl)oxazolidin-2-one], 10 to 100 nM.
